The values below come from PubChem BioAssay AID328 (DTP/NCI, 2004).

“And” between values parts separate entries of the source, which are not always exact repeats. Equal entries are not always repeated. Inconclusive results and toxic doses are left out.

In this assay the test system is BDF1 mice, P388 leukemia ip, median survival T/C. Kind of assay: NCI In Vivo Anticancer Drug Screen. Data for tumor model P388 Leukemia (intraperitoneal) in B6D2F1 (BDF1) mice. As to conditions: endpoint: median survival time, higher = longer survival. In outline: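 In tumour-bearing mice, survival after compound treatment is set against the vehicle group and given as a quotient.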

[1] abbreviates: dose: 25.0 mg/kg/injection, schedule: Q01DX009 (ip), vehicle: saline.
[2] abbreviates: dose: 100.0 mg/kg/injection, schedule: Q01DX009 (ip), vehicle: saline.
[3] abbreviates: dose: 400.0 mg/kg/injection, schedule: Q01DX009 (ip), vehicle: saline.
The mark [4] stands for this setting: dose: 25.0 mg/kg/injection, schedule: Q01DX009 (ip), vehicle: Klucel (hydroxypropylcellulose) (HPC).
Where [5] appears, read: dose: 50.0 mg/kg/injection, schedule: Q01DX009 (ip), vehicle: Klucel (hydroxypropylcellulose) (HPC).
The mark [6] stands for this setting: dose: 100.0 mg/kg/injection, schedule: Q01DX009 (ip), vehicle: Klucel (hydroxypropylcellulose) (HPC).
Setting [7] is: dose: 100.0 mg/kg/injection, schedule: Q04DX003 (ip), vehicle: saline with Tween-80.
Where [8] appears, read: dose: 200.0 mg/kg/injection, schedule: Q04DX003 (ip), vehicle: saline with Tween-80.
[9] abbreviates: dose: 400.0 mg/kg/injection, schedule: Q04DX003 (ip), vehicle: saline with Tween-80.
Where [10] appears, read: dose: 50.0 mg/kg/injection, schedule: Q01DX009 (ip), vehicle: saline with Tween-80.
Setting [11] is: dose: 100.0 mg/kg/injection, schedule: Q01DX009 (ip), vehicle: saline with Tween-80.
Setting [12] is: dose: 200.0 mg/kg/injection, schedule: Q01DX009 (ip), vehicle: saline with Tween-80.
Setting [13] is: dose: 400.0 mg/kg/injection, schedule: Q01DX009 (ip), vehicle: saline with Tween-80.

Take `C=CCCC(=O)OC(C)(C)C`: the T/C by setting is: (dose: 12.5 mg/kg/injection, schedule: Q01DX009 (ip), vehicle: water) 103 % of control; under setting [1], 109 % of control; (dose: 25.0 mg/kg/injection, schedule: Q01DX009 (ip), vehicle: water) 100 % of control; (dose: 25.0 mg/kg/injection, schedule: Q04DX003 (ip), vehicle: water) 106 % of control; (dose: 50.0 mg/kg/injection, schedule: Q01DX009 (ip), vehicle: water) 100 % of control; (dose: 50.0 mg/kg/injection, schedule: Q04DX003 (ip), vehicle: water) 116 % of control. The T/C was 109 % of control under setting [2]; 114 % of control (dose: 100.0 mg/kg/injection, schedule: Q04DX003 (ip), vehicle: water); 98 % of control (dose: 200.0 mg/kg/injection, schedule: Q04DX003 (ip), vehicle: water); 100 % of control under setting [3]; 114 % of control (dose: 400.0 mg/kg/injection, schedule: Q04DX003 (ip), vehicle: water).
Regarding `CC[n+]1ccc(Nc2ccc(/C=C/c3ccc4cc(Nc5cc[n+](CC)cc5)ccc4[n+]3CC)cc2)cc1`, the T/C (dose: 2.5 mg/kg/injection, schedule: Q01DX009 (ip), vehicle: saline) was 158 % of control and 161 % of control; the T/C (dose: 3.13 mg/kg/injection, schedule: Q01DX009 (oral), vehicle: saline) is 86 % of control; the T/C (dose: 5.0 mg/kg/injection, schedule: Q01DX009 (ip), vehicle: saline) was 177 % of control and 187 % of control; the T/C (dose: 6.25 mg/kg/injection, schedule: Q01DX009 (oral), vehicle: saline) is 93 % of control; the T/C (dose: 10.0 mg/kg/injection, schedule: Q01DX009 (ip), vehicle: saline) is 229 % of control and 239 % of control; the T/C (dose: 12.5 mg/kg/injection, schedule: Q01DX009 (oral), vehicle: saline) was 86 % of control. Further, the T/C (dose: 25.0 mg/kg/injection, schedule: Q01DX009 (oral), vehicle: saline) is 86 % of control.
In the case of `Cc1n[nH]c(=O)[nH]c1=O`, the T/C is, setting by setting: (dose: 12.5 mg/kg/injection, schedule: Q01DX009 (ip), vehicle: Klucel (hydroxypropylcellulose) (HPC)) 100 % of control; under setting [4], 109 % of control; under setting [5], 100 % of control; under setting [6], 91 % of control.
For `COc1cc(Cc2nccc3cc(OC)c(OC)cc23)c([N+](=O)[O-])cc1OC`, the T/C is 90 % of control (dose: 100.0 mg/kg/injection, schedule: Q04DX003 (ip), vehicle: saline sonified); 95 % of control (dose: 200.0 mg/kg/injection, schedule: Q04DX003 (ip), vehicle: saline sonified); 90 % of control (dose: 400.0 mg/kg/injection, schedule: Q04DX003 (ip), vehicle: saline sonified).
Take `COc1ccc(CNc2ncccn2)cc1`: the T/C was 95 % of control under setting [4]; 100 % of control under setting [5]; 104 % of control under setting [6]; 88 % of control (dose: 100.0 mg/kg/injection, schedule: Q04DX003 (ip), vehicle: Klucel (hydroxypropylcellulose) (HPC)); 89 % of control (dose: 200.0 mg/kg/injection, schedule: Q01DX009 (ip), vehicle: Klucel (hydroxypropylcellulose) (HPC)); 96 % of control (dose: 200.0 mg/kg/injection, schedule: Q04DX003 (ip), vehicle: Klucel (hydroxypropylcellulose) (HPC)).
As to `COc1ccc(CN(C(C)=O)c2cc(C)c([N+](=O)[O-])cc2OC)cc1OC`, the T/C was 103 % of control under setting [1]; 87 % of control and 107 % of control (dose: 25.0 mg/kg/injection, schedule: Q04DX003 (ip), vehicle: saline); 87 % of control (dose: 50.0 mg/kg/injection, schedule: Q01DX009 (ip), vehicle: saline); 88 % of control and 107 % of control (dose: 50.0 mg/kg/injection, schedule: Q04DX003 (ip), vehicle: saline); 111 % of control under setting [2]; 106 % of control (dose: 150.0 mg/kg/injection, schedule: Q04DX003 (ip), vehicle: saline). Moreover, the T/C was 108 % of control (dose: 200.0 mg/kg/injection, schedule: Q01DX009 (ip), vehicle: saline); 99 % of control and 107 % of control (dose: 200.0 mg/kg/injection, schedule: Q04DX003 (ip), vehicle: saline); 114 % of control (dose: 300.0 mg/kg/injection, schedule: Q04DX003 (ip), vehicle: saline); 100 % of control under setting [3]; 100 % of control (dose: 400.0 mg/kg/injection, schedule: Q04DX003 (ip), vehicle: saline).
Take `COc1cc2c3c(c1)-c1nc4ccccc4cc1CN3CCC2`: the T/C (dose: 12.5 mg/kg/injection, schedule: Q04DX003 (ip), vehicle: other) is 100 % of control; the T/C (dose: 25.0 mg/kg/injection, schedule: Q04DX003 (ip), vehicle: other) is 113 % of control; the T/C (dose: 50.0 mg/kg/injection, schedule: Q04DX003 (ip), vehicle: other) is 109 % of control.
`Cc1oc(-c2ccccc2)nc1C(=O)O`: the T/C reads like this: under setting [7], 106 % of control; under setting [8], 100 % of control; under setting [9], 102 % of control.
In the same order, the values of `CC(C)C(Br)C(=O)NCC(=O)NCC(=O)O` (stereo not drawn) are 104 % of control, 109 % of control and 100 % of control.
Take `Cc1cc(C)c(C#N)c([S][Sn]([Cl])([Cl])[S]c2nc(C)cc(C)c2C#N)n1`: the T/C by setting is: under setting [7], 97 % of control; under setting [8], 98 % of control.
For the compound `CN(C)CCNC(=O)Cc1cc(O)c2c(c1O)C(=O)c1ccccc1C2=O`, the T/C was 105 % of control (dose: 50.0 mg/kg/injection, schedule: Q01DX005 (ip), vehicle: saline) and 118 % of control (dose: 100.0 mg/kg/injection, schedule: Q01DX005 (ip), vehicle: saline).
For `[CH3][Sn]([CH3])([CH3])[O]C(=O)CCl`, the T/C by setting is: (dose: 0.75 mg/kg/injection, schedule: Q01DX009 (ip), vehicle: saline) 120 % of control; (dose: 1.5 mg/kg/injection, schedule: Q01DX009 (ip), vehicle: saline) 106 % of control.
Take `CCCCN(CCCC)CC(O)c1cc(Cl)cc2cccnc12` (stereo not drawn): the T/C reads like this: (dose: 3.12 mg/kg/injection, schedule: Q01DX009 (ip), vehicle: saline with Tween-80) 100 % of control; (dose: 6.25 mg/kg/injection, schedule: Q01DX009 (ip), vehicle: saline with Tween-80) 104 % of control; (dose: 12.5 mg/kg/injection, schedule: Q01DX009 (ip), vehicle: saline with Tween-80) 108 % of control; under setting [4], 87 % of control and 92 % of control; (dose: 25.0 mg/kg/injection, schedule: Q04DX003 (ip), vehicle: Klucel (hydroxypropylcellulose) (HPC)) 108 % of control; under setting [5], 100 % of control and 108 % of control. Moreover, the T/C (dose: 50.0 mg/kg/injection, schedule: Q04DX003 (ip), vehicle: Klucel (hydroxypropylcellulose) (HPC)) is 100 % of control.
As for `CCOC1(OCC)OC(c2ccccc2)=C(C#N)C(/C=C\c2ccccc2)C1(OCC)OCC` (stereo not drawn), the T/C reads like this: under setting [10], 92 % of control; under setting [11], 92 % of control; under setting [12], 90 % of control.
`COc1ccc(C(=O)/C=C/c2ccc(OCc3ccccc3)cc2)cc1`: the T/C under setting [10] was 100 % of control, the T/C under setting [11] was 91 % of control and the T/C under setting [12] is 96 % of control.
`CC(C)C(O)(C(=O)NN)C(=O)NN`: the T/C runs as follows: under setting [11], 100 % of control; under setting [12], 109 % of control; under setting [13], 100 % of control.
Turning to `C=C(C)[C@@]12O[C@@]3(CCCCCCCCC)O[C@@H]1[C@@H]1[C@@H]4O[C@]4(CO)[C@@H](O)[C@]4(O)C(=O)C(C)=CC4[C@@]1(O3)[C@H](C)[C@H]2OC(=O)c1ccccc1` (stereo partly drawn), for the setting “dose: 400.0 micrograms/kg/injection, schedule: Q01DX009 (ip), vehicle: saline + alcohol”, the T/C is 174 % of control.
`Cc1nn(CCO)c(-c2ccccc2)c1-n1on1-c1c(C)nn(CCO)c1-c1ccccc1`: the T/C under setting [10] is 101 % of control.
Regarding `CCSC(=O)CC`, the T/C under setting [10] was 95 % of control; the T/C under setting [11] was 105 % of control; the T/C under setting [7] was 104 % of control; the T/C under setting [12] is 100 % of control; the T/C under setting [8] is 104 % of control; the T/C under setting [9] is 100 % of control.
`COC(C(OC)N1CCOCC1)N1CCOCC1` (stereo not drawn): the T/C was 104 % of control (dose: 50.0 mg/kg/injection, schedule: Q04DX003 (ip), vehicle: saline with Tween-80); 91 % of control under setting [11]; 95 % of control under setting [7]; 95 % of control under setting [12]; 100 % of control under setting [8]; 95 % of control under setting [13]. The T/C under setting [9] was 100 % of control.
